In patent EP0337600A2, “Benzoylurea derivative, process for producing the same, insecticide containing the same, reaction intermediate of the same and process for producing the intermediate” (priority 1988, dated 1989):

Columns and labels:
Type in all cases: in vivo
[1] = tested on: diamond-back moth (Plutella xylostella) (field-strain); experiment: Hatching of diamond-back moth eggs laid on dipped germinated Japanese radish (Test Example 3); conditions: 1.25 ppm (diluted 80,000 times with water); radish dipped 30 seconds before egg laying; hatching counted after 5 days; repeated twice; four grades
Procedure: Two pieces of germinated Japanese radish which had been sowed 5 or 6 days before were dipped for 30 seconds in the aqueous dilute solution. After air-drying for about 1 hour, these germinated radish were put in a cage wherein a large number of adult diamond-back moth (Plutella xylostella) (field-strain) of an age of 1-3 days after the emergence were released, and they were allowed to lay eggs. When the number of eggs per germinated radish reached 100 to 150, the radish were taken out of the cage and each two pieces thereof were put in a polyethylene cup of 5.5 cm in diameter. After 5 days, the number of hatching was counted to obtain percentage of hatching. The test was repeated twice.

[2] = tested on: tobacco cutworm (Spodoptera litura); experiment: Mortality of tobacco cutworm larvae on sprayed cabbage (Test Example 2); conditions: for mortality at 0.5 ppm: Spodoptera litura, 120 h; for Mortality (%): 0.5 ppm (diluted 200,000 times with water), 30 ml sprayed onto cabbage, 5 fourth-instar larvae, after 5 days, repeated three times
Procedure: The emulsifiable concentrate of each of the following present compounds and controls prepared according to Formulation Example 1 was diluted 200,000 times with water (corresponding to 0.5 ppm). And 30 ml of each aqueous dilute solution thus obtained were sprayed onto cabbage cultivated in a plastic cup on a turn table, which cabbage had been planted one month before. After air-drying, 5 fourth-instar larvae of tobacco cutworm (Spodoptera litura) were released thereon, and after 5 days, the dead and alive were counted for mortality. This test was repeated three times.

[3] = tested on: common mosquito (Culex pipiens pallens); experiment: Inhibition of adult emergence of common mosquito larvae in aqueous dilute emulsion (Test Example 1); conditions: 3.5 ppm (emulsifiable concentrate diluted 28,600 times with water), 20 last-instar larvae in 100 ml, bred until emergence, repeated twice
Procedure: The emulsifiable concentrate of each of the following present compounds prepared according to Formulation Example 1 was diluted 28,600 times with water (corresponding to 3.5 ppm). And 100 ml of each aqueous dilute emulsion thus obtained were charged in a 180-ml polyethylene cup. Then 20 last-instar larvae of common mosquito (Culex pipiens pallens) were released therein. The larvae were bred on baits until emergence to obtain percentage of inhibition of adult emergence. The test was repeated twice.

Row | SMILES | Percentage of hatching [1] | mortality at 0.5 ppm [2] [%] | inhibition at 3.5 ppm [3] [%] | Mortality (%) [2] [%]
1 | O=C(NC(=O)c1c(F)cccc1F)Nc1ccc(OC(F)(F)C(F)(F)Br)cc1F [(1)] | A (A: 0%) | 100 | 100 | 
2 | O=C(NC(=O)c1c(F)cccc1F)Nc1ccc(OC(F)(F)C(Cl)Cl)cc1F [(2)] | A (A: 0%) | 93 | 100 | 
3 | O=C(NC(=O)c1ccccc1Cl)Nc1ccc(OC(F)(F)C(Cl)Cl)cc1F [(3)] | A (A: 0%) | 100 | 100 | 
4 | O=C(NC(=O)c1c(F)cccc1F)Nc1ccc(OC(F)(F)C(Br)Br)cc1F [(4)] | A (A: 0%) | 100 | 100 | 
5 | O=C(NC(=O)c1c(F)cccc1F)Nc1ccc(OC(F)(F)C(F)Cl)cc1F (stereo not shown) [(5)] | A (A: 0%) | 93 | 100 | 
6 | O=C(NC(=O)c1ccccc1Cl)Nc1ccc(OC(F)(F)C(F)Cl)cc1F (stereo not shown) [(6)] | A (A: 0%) | 100 | 100 | 
7 | O=C(NC(=O)c1c(F)cccc1F)Nc1ccc(OC(F)(F)C(F)C(F)(F)F)cc1F (stereo not shown) [(7)] | A (A: 0%) | 100 | 100 | 
8 | O=C(NC(=O)c1ccccc1Cl)Nc1ccc(OC(F)(F)C(F)C(F)(F)F)cc1F (stereo not shown) [(8)] | A (A: 0%) | 100 | 100 | 
9 | O=C(NC(=O)c1c(F)cccc1F)Nc1ccc(OC(F)(F)C(F)OC(F)(F)C(F)(F)C(F)(F)F)cc1F (stereo not shown) [(9)] | A (A: 0%) | 100 | 100 | 
10 | O=C(NC(=O)c1ccccc1Cl)Nc1ccc(OC(F)(F)C(F)OC(F)(F)C(F)(F)C(F)(F)F)cc1F (stereo not shown) [(10)] | A (A: 0%) | 100 | 100 | 
11 | O=C(NC(=O)c1c(F)cccc1F)Nc1ccc(OC(F)(F)C(F)OC(F)(F)F)cc1F (stereo not shown) [(11)] | A (A: 0%) | 100 | 100 | 
12 | O=C(NC(=O)c1ccccc1Cl)Nc1ccc(OC(F)(F)C(F)OC(F)(F)F)cc1F (stereo not shown) [(12)] | A (A: 0%) | 100 | 100 | 
13 | O=C(NC(=O)c1c(F)cccc1F)Nc1ccc(Cl)cc1 [(A), reference compound] | D (D: 21% or more) |  |  | 13
14 | O=C(NC(=O)c1ccccc1Cl)Nc1ccc(OC(F)(F)F)cc1 [(B), reference compound] | D (D: 21% or more) |  |  | 0
